Assays:
[1] = molecular target: Mu-type opioid receptor (Homo sapiens, UniProt P35372)
[2] = molecular target: T1, Alpha-2C adrenergic receptor (Homo sapiens, UniProt P18825); type: functional
T1 sequence (P18825 whole entry): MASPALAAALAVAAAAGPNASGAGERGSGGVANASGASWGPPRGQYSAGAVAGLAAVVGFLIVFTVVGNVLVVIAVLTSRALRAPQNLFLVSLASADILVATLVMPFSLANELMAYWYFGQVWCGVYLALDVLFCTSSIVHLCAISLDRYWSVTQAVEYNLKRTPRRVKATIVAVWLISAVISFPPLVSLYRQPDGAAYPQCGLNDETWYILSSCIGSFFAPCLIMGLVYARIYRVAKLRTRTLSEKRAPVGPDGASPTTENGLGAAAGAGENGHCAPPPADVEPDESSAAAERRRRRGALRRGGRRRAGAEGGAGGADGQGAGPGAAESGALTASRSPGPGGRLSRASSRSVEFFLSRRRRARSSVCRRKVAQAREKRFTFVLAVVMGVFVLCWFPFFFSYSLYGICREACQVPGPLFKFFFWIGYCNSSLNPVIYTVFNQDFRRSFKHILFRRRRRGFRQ

[3] = molecular target: T2, 5-hydroxytryptamine receptor 1A (Homo sapiens, UniProt P08908)
T2 sequence (P08908 whole entry): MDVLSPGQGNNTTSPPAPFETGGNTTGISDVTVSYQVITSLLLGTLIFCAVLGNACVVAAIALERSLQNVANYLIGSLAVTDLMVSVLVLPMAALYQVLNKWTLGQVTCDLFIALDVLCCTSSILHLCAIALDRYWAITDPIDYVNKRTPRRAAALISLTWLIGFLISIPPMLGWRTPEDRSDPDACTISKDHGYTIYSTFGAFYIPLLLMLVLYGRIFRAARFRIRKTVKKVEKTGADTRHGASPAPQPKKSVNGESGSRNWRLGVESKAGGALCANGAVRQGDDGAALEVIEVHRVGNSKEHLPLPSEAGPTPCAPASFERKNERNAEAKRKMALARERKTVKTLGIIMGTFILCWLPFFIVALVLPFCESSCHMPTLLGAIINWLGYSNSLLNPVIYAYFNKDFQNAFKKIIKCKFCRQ

[4] = molecular target: cGMP-inhibited 3',5'-cyclic phosphodiesterase 3A (Homo sapiens, UniProt Q14432); type: functional
cGMP-inhibited 3',5'-cyclic phosphodiesterase 3A, sequence (Q14432 whole entry): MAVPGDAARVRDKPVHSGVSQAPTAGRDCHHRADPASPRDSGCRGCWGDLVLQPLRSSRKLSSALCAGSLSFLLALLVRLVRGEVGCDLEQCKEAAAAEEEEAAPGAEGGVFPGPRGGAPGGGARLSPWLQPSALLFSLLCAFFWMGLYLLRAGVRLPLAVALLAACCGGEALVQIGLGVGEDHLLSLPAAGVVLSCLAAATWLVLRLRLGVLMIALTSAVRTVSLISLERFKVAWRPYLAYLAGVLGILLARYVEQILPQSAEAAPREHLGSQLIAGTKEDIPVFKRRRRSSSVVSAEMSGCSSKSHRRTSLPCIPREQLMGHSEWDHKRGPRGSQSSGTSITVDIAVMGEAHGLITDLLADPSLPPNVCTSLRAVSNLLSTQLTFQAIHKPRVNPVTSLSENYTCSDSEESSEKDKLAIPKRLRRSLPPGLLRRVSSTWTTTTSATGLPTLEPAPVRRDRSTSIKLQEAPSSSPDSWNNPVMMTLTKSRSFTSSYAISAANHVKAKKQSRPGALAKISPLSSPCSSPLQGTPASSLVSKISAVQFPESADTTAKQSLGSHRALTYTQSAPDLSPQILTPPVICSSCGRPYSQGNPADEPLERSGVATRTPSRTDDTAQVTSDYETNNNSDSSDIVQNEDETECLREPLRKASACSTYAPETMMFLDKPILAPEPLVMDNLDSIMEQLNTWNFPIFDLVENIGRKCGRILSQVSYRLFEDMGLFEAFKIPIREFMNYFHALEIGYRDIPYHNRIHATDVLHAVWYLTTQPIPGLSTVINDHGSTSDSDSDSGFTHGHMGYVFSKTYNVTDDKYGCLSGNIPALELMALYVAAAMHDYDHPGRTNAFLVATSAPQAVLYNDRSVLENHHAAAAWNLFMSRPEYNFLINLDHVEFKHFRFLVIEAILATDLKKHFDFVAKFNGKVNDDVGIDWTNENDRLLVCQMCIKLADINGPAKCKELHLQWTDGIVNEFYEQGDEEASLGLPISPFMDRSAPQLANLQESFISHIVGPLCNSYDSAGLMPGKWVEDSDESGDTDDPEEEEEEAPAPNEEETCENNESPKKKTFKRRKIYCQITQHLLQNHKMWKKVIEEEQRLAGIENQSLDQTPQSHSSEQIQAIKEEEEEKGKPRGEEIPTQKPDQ

[5] = molecular target: T3, Progesterone receptor (Homo sapiens, UniProt P06401)
T3 sequence (P06401 whole entry): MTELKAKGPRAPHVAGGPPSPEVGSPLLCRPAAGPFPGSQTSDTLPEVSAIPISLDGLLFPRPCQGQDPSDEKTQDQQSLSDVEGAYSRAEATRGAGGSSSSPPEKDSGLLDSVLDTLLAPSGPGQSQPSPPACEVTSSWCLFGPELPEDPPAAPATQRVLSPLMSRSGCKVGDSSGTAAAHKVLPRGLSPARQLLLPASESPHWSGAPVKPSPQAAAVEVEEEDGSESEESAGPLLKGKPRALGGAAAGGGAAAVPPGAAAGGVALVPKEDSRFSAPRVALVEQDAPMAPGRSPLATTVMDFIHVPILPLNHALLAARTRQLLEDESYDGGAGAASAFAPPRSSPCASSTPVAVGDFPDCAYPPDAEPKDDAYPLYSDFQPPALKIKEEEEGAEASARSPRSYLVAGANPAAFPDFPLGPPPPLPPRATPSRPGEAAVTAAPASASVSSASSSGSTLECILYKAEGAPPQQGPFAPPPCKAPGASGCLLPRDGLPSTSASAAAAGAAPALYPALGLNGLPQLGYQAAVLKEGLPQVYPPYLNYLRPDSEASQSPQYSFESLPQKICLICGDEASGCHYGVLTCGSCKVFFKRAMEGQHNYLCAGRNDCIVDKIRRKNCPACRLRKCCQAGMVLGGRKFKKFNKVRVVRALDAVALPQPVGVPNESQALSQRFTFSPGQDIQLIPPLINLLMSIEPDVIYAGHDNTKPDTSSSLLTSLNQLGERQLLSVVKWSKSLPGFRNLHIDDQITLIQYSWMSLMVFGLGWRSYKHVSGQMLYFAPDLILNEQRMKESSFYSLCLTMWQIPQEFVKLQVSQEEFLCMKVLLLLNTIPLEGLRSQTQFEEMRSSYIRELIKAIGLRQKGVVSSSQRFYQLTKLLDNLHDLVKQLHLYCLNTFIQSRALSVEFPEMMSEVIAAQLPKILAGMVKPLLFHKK

[6] = molecular target: Sodium-dependent noradrenaline transporter (Homo sapiens, UniProt P23975)
Sodium-dependent noradrenaline transporter, sequence (P23975 whole entry): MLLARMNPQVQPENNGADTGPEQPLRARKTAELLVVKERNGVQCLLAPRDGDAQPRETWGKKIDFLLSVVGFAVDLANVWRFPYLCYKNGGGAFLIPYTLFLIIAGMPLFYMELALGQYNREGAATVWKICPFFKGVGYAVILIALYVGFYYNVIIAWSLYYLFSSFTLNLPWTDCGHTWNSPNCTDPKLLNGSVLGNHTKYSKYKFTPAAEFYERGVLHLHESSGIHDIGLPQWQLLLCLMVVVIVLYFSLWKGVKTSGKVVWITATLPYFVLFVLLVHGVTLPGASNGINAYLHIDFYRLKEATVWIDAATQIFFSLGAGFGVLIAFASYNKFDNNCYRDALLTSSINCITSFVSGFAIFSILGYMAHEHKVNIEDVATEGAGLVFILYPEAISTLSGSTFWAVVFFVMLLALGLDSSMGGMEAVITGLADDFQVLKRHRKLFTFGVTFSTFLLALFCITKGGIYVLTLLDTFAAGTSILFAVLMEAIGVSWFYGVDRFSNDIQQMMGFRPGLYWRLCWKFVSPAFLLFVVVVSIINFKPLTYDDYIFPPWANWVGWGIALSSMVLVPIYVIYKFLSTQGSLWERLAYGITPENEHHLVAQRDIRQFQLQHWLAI

[7] = molecular target: Sodium-dependent serotonin transporter (Homo sapiens, UniProt P31645)
Sodium-dependent serotonin transporter, sequence (P31645 whole entry): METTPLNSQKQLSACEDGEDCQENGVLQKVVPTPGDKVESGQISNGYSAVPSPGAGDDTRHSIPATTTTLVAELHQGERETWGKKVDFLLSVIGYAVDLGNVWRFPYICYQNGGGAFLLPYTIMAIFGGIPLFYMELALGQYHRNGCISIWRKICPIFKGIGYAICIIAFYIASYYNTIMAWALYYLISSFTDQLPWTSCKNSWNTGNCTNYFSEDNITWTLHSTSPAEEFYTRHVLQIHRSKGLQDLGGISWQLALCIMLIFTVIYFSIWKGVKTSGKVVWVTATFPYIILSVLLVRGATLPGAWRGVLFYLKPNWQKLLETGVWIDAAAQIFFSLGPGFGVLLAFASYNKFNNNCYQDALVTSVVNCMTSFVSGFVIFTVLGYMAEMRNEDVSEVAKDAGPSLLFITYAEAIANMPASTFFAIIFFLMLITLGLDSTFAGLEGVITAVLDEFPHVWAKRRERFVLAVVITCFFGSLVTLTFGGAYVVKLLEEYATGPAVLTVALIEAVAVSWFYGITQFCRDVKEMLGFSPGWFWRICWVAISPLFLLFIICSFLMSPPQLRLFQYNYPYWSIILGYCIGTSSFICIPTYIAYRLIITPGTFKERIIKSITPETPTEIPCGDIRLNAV

[8] = molecular target: T4, Equilibrative nucleoside transporter 1 (Homo sapiens, UniProt Q99808)
T4 sequence (Q99808 whole entry): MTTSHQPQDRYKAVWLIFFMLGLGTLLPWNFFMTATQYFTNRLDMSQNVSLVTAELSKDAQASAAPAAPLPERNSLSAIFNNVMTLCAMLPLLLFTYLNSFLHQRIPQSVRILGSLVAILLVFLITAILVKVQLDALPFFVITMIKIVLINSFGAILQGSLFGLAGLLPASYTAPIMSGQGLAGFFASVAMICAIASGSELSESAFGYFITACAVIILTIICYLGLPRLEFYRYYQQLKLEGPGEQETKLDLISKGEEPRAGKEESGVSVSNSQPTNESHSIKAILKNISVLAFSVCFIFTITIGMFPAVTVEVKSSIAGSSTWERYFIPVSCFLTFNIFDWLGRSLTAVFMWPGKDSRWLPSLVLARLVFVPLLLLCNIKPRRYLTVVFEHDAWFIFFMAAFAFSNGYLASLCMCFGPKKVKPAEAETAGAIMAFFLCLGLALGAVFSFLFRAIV

[9] = molecular target: D(1A) dopamine receptor (Homo sapiens, UniProt P21728)
D(1A) dopamine receptor, sequence (P21728 whole entry): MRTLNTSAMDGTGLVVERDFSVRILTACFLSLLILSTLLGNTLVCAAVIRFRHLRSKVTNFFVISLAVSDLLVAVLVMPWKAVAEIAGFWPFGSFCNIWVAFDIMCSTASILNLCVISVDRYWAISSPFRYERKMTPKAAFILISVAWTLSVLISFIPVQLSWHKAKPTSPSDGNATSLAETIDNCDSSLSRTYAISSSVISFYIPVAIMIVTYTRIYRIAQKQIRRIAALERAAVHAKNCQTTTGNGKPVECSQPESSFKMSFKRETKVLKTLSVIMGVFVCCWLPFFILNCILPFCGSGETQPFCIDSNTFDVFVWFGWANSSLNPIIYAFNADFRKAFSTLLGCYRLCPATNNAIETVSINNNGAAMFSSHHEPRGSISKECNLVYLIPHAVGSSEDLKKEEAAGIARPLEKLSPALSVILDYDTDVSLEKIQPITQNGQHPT
Note: assay procedure not described here.

Mu-type opioid receptor, sequence (P35372 whole entry): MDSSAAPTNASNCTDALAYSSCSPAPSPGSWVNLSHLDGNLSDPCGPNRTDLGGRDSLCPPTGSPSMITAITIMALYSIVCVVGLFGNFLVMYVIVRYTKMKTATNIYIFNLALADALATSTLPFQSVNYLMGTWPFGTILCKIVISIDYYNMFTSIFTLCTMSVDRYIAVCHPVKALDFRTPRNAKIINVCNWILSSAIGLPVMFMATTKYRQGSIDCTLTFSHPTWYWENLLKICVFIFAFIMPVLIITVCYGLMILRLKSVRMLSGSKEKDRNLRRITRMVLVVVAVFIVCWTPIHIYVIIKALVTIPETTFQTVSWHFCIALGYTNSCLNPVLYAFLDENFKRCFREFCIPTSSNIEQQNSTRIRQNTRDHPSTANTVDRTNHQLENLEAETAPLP

Structure (SMILES)	AC50 [1] [µM]	AC50 [2] [µM]	AC50 [3] [µM]	AC50 [4] [µM]	AC50 [5] [µM]	AC50 [6] [µM]	AC50 [7] [µM]	AC50 [8] [µM]	AC50 [9] [µM]
CC(=O)O[C@]1(C(C)=O)CC[C@H]2[C@@H]3C=C(C)C4=CC(=O)CC[C@@H]4[C@H]3CC[C@@]21C [NOMEGESTROL ACETATE]	> 30	> 30	> 30	> 30	0.003	> 30	> 30	> 30	> 30
CN(CC1(C)CCCO1)S(=O)(=O)c1ccc(Cl)c(S(N)(=O)=O)c1 (configuration not stated) [MEFRUSIDE]	> 30	> 30	> 30	> 30	> 30	> 30	> 30		> 30
C#C[C@]1(O)CC[C@H]2[C@@H]3CCC4=CC(=O)CC[C@@H]4[C@H]3C(=C)C[C@@]21CC [ETONOGESTREL]	10.5	> 30	> 30	> 30	0.003	> 30	> 30		> 30
CC[C@@]1(O)C(=O)OCc2c1cc1n(c2=O)Cc2cc3c([N+](=O)[O-])cccc3nc2-1 [RUBITECAN]	> 30		> 30	> 30	> 30	> 30	> 30		> 30
CC(C)(O)CNc1nc(Nc2ccnc(C(F)(F)F)c2)nc(-c2cccc(C(F)(F)F)n2)n1 [ENASIDENIB]	21.5		> 30	> 30	> 30	> 30	> 30		> 30
CC(C)OC(=O)CCC/C=C\C[C@@H]1[C@@H](/C=C/C(F)(F)COc2ccccc2)[C@H](O)C[C@@H]1O [TAFLUPROST]	> 30		> 30	> 30	> 30	> 30	> 30		> 30
CNC(=O)Oc1cccc2ccccc12 [CARBARIL]	> 30		> 30	> 30	14.3	> 30	> 30		> 30
CCOC(=O)C1=C[C@@H](OC(CC)CC)[C@H](NC(C)=O)[C@@H](N)C1 [OSELTAMIVIR]	> 30		> 30	> 30	> 30	> 30	> 30		> 30
OC[C@H]1O[C@@H](c2ccc(Cl)c(Cc3ccc(O[C@H]4CCOC4)cc3)c2)[C@H](O)[C@@H](O)[C@@H]1O [EMPAGLIFLOZIN]	> 30		> 30	> 30	> 30	> 30	> 30		> 30
Cc1ccccc1C(=O)Nc1ccc(C(=O)N2CCCC(N(C)C)c3ccccc32)cc1 (configuration not stated) [MOZAVAPTAN]	2.48		5.8	> 30	> 30	> 30	1.26		> 30
CC[C@H]1OC(=O)[C@H](C)C(=O)[C@H](C)[C@@H](O[C@@H]2O[C@H](C)C[C@H](N(C)C)[C@H]2O)[C@](C)(OC)C[C@@H](C)C(=O)[C@H](C)[C@H]2N(CCCCn3cnc(-c4cccnc4)c3)C(=O)O[C@]12C [TELITHROMYCIN]	> 30		> 30	> 30	> 30	> 30	> 30		> 30
C=CCN1CC[C@]23CCCC[C@H]2[C@H]1Cc1ccc(O)cc13 [LEVALLORPHAN]	0.003		27.6	> 30	> 30	> 30	> 30		> 30
CCOC(=O)c1c(C)cc2c(CO)n[nH]c(=O)c2c1C [OXAGRELATE]	> 30		> 30	6.48	> 30	> 30	> 30		> 30
CC[C@H](C)C[C@H](C)CCCCCCCCC(=O)N[C@H]1C[C@@H](O)[C@@H](NCCN)NC(=O)[C@@H]2[C@@H](O)CCN2C(=O)[C@H]([C@H](O)CCN)NC(=O)[C@H]([C@H](O)[C@@H](O)c2ccc(O)cc2)NC(=O)[C@@H]2C[C@@H](O)CN2C(=O)[C@H]([C@@H](C)O)NC1=O [CASPOFUNGIN]	5.12		> 30	> 30	5.7	5.03	> 30		8.83

From ChEMBL document CHEMBL5291721, “A preclinical secondary pharmacology resource illuminates target-adverse drug reaction associations of marketed drugs” (Nat Commun, 2023)
